Measurements as given in patent publication US7183415B2, “Quinoline compound” (Takeda Pharmaceutical Company Limited, priority 2001, dated 2007).

| melting point | Structure (SMILES) |
| --- | --- |
| 181 to 185 °C | Cc1cc2cc(CN3CCCC3)cnc2cc1NC(=O)c1ccc(-c2ccc(Cl)cc2)c(F)c1 [Example 235, 4′-chloro-2-fluoro-N-[6-methyl-3-(1-pyrrolidinylmethyl)-7-quinolinyl][1,1′-biphenyl]-4-carboxamide] |
| 165 to 167 °C | COc1ccc(-c2ccc(C(=O)Nc3cc4ncc(CN5CCCC5)cc4cc3C)cc2F)cc1 [Example 236, 2-fluoro-4′-methoxy-N-[6-methyl-3-(1-pyrrolidinylmethyl)-7-quinolinyl][1,1′-biphenyl]-4-carboxamide] |
| 204 °C | Cc1cc2cc(CN3CCCCCC3)cnc2cc1NC(=O)c1ccc(-c2ccc(Cl)cc2)cc1 [Example 238, N-[3-(1-azepanylmethyl)-6-methyl-7-quinolinyl]-4′-chloro[1,1′-biphenyl]-4-carboxamide] |
| 207 °C | Cc1cc2cc(CN3CCCCCC3)cnc2cc1NC(=O)c1ccc(-c2cc3ccccc3o2)cc1 [Example 240, N-[3-(1-azepanylmethyl)-6-methyl-7-quinolinyl]-4-(1-benzofuran-2-yl)benzamide] |
| 180 °C | Cc1cc2cc(CN3CCCCCC3)cnc2cc1NC(=O)c1ccc(-c2ccc(Cl)s2)cc1 [Example 241, N-[3-(1-azepanylmethyl)-6-methyl-7-quinolinyl]-4-(5-chlorothien-2-yl)benzamide] |
| 209 °C | Cc1cc2cc(CN3CCCCCC3)cnc2cc1NC(=O)c1ccc(-c2ccc(Cl)cc2)cc1F [Example 243, N-[3-(1-azepanylmethyl)-6-methyl-7-quinolinyl]-4′-chloro-3-fluoro[1,1′-biphenyl]-4-carboxamide] |
| 170 °C | Cc1cc2cc(CN3CCCCCC3)cnc2cc1NC(=O)c1ccc(-c2ccc(F)cc2)cc1F [Example 244, N-[3-(1-azepanylmethyl)-6-methyl-7-quinolinyl]-3,4′-difluoro[1,1′-biphenyl]-4-carboxamide] |
| 168 °C | COc1ccc(-c2ccc(C(=O)Nc3cc4ncc(CN5CCCCCC5)cc4cc3C)c(F)c2)cc1 [Example 245, N-[3-(1-azepanylmethyl)-6-methyl-7-quinolinyl]-3-fluoro-4′-methoxy[1,1′-biphenyl]-4-carboxamide] |
| 151 °C | Cc1cc2cc(CN3CCCCCC3)cnc2cc1NC(=O)c1ccc(-c2ccccc2)cc1F [Example 246, N-[3-(1-azepanylmethyl)-6-methyl-7-quinolinyl]-3-fluoro[1,1′-biphenyl]-4-carboxamide] |
| 183 to 186 °C | Cc1cc2cc(CN(C)C)cnc2cc1NC(=O)c1ccc(-c2ccc(F)cc2)cc1 [Example 248, N-{3-[(dimethylamino)methyl]-6-methyl-7-quinolinyl}-4′-fluoro[1,1′-biphenyl]-4-carboxamide] |
| 145 to 148 °C | CCN(CC)Cc1cnc2cc(NC(=O)c3ccc(-c4ccc(F)cc4)cc3)c(C)cc2c1 [Example 249, N-{3-[(diethylamino)methyl]-6-methyl-7-quinolinyl)-4′-fluoro[1,1′-biphenyl]-4-carboxamide] |
| 185 to 188 °C | Cc1cc2cc(CN3CCCCC3)cnc2cc1NC(=O)c1ccc(-c2ccc(F)cc2)cc1 [Example 250, 4′-fluoro-N-[6-methyl-3-(1-piperidinylmethyl)-7-quinolinyl][1,1′-biphenyl]-4-carboxamide] |
| 170 to 174 °C | Cc1cc2cc(CN3CCCCCC3)cnc2cc1NC(=O)c1ccc(-c2ccc(F)cc2)cc1 [Example 251, N-[3-(1-azepanylmethyl)-6-methyl-7-quinolinyl]-4′-fluoro[1,1′-biphenyl]-4-carboxamide] |
| 153 to 158 °C | Cc1cc2cc(CN3CCOCC3)cnc2cc1NC(=O)c1ccc(-c2ccc(F)cc2)cc1 [Example 252, 4′-fluoro-N-[6-methyl-3-(4-morpholinylmethyl)-7-quinolinyl][1,1′-biphenyl]-4-carboxamide] |
| 223 to 227 °C | Cc1cc2cc(CN3CCC(CCC(N)=O)CC3)cnc2cc1NC(=O)c1ccc(-c2ccc(F)cc2)cc1 [Example 253, N-(3-{[4-(3-amino-3-oxopropyl)-1-piperidinyl]methyl}-6-methyl-7-quinolinyl)-4′-fluoro[1,1′-biphenyl]-4-carboxamide] |
| 207 to 211 °C | CNC(=O)CCC1CCN(Cc2cnc3cc(NC(=O)c4ccc(-c5ccc(F)cc5)cc4)c(C)cc3c2)CC1 [Example 254, 4′-fluoro-N-[6-methyl-3-({4-[3-(methylamino)-3-oxopropyl]-1-piperidinyl}methyl)-7-quinolinyl][1,1′-biphenyl]-4-carboxamide] |

| melting point | Structure (SMILES) |
| --- | --- |
| 227 to 230 °C | CCNC(=O)CCC1CCN(Cc2cnc3cc(NC(=O)c4ccc(-c5ccc(F)cc5)cc4)c(C)cc3c2)CC1 [Example 255, N-[3-({4-[3-(ethylamino)-3-oxopropyl]-1-piperidinyl}methyl)-6-methyl-7-quinolinyl]-4′-fluoro[1,1′-biphenyl]-4-carboxamide] |
| 193 to 196 °C | Cc1cc2cc(CN3CCC(CCC(=O)N(C)C)CC3)cnc2cc1NC(=O)c1ccc(-c2ccc(F)cc2)cc1 [Example 256, N-[3-({4-[3-(dimethylamino)-3-oxopropyl]-1-piperidinyl}methyl)-6-methyl-7-quinolinyl]-4′-fluoro[1,1′-biphenyl]-4-carboxamide] |
| 150 to 154 °C | CCN(CC)C(=O)CCC1CCN(Cc2cnc3cc(NC(=O)c4ccc(-c5ccc(F)cc5)cc4)c(C)cc3c2)CC1 [Example 257, N-[3-({4-[3-(diethylamino)-3-oxopropyl]-1-piperidinyl}methyl)-6-methyl-7-quinolinyl]-4′-fluoro[1,1′-biphenyl]-4-carboxamide] |
| 189 to 191 °C | Cc1cc2cc(CN3CCC(CCC(=O)N4CCCCC4)CC3)cnc2cc1NC(=O)c1ccc(-c2ccc(F)cc2)cc1 [Example 258, 4′-fluoro-N-[6-methyl-3-({4-[3-oxo-3-(1-piperidinyl)propyl]-1-piperidinyl}methyl)-7-quinolinyl][1,1′-biphenyl]-4-carboxamide] |
| 179 °C | Cc1cc2cc(CN3CCC(CCCC(=O)N4CCCCC4)CC3)cnc2cc1NC(=O)c1ccc(-c2ccc(F)cc2)cc1 [Example 259, 4′-fluoro-N-[6-methyl-3-({4-[4-oxo-4-(1-piperidinyl)butyl]-1-piperidinyl}methyl)-7-quinolinyl][1,1′-biphenyl]-4-carboxamide] |
| 181 °C | CCN(CC)C(=O)CCCC1CCN(Cc2cnc3cc(NC(=O)c4ccc(-c5ccc(F)cc5)cc4)c(C)cc3c2)CC1 [Example 260, N-[3-({4-[4-(diethylamino)-4-oxobutyl]-1-piperidinyl}methyl)-6-methyl-7-quinolinyl]-4′-fluoro[1,1′-biphenyl]-4-carboxamide] |
| 240 °C | CCNC(=O)CCCC1CCN(Cc2cnc3cc(NC(=O)c4ccc(-c5ccc(F)cc5)cc4)c(C)cc3c2)CC1 [Example 261, N-[3-({4-[4-(ethylamino)-4-oxobutyl]-1-piperidinyl}methyl)-6-methyl-7-quinolinyl]-4′-fluoro[1,1′-biphenyl]-4-carboxamide] |
| 194 °C | Cc1cc2cc(CN3CCC(CCCC(=O)N(C)C)CC3)cnc2cc1NC(=O)c1ccc(-c2ccc(F)cc2)cc1 [Example 262, N-[3-({4-[4-(dimethylamino)-4-oxobutyl]-1-piperidinyl}methyl)-6-methyl-7-quinolinyl]-4′-fluoro[1,1′-biphenyl]-4-carboxamide] |
| 228 °C | Cc1cc2cc(CN3CCC(CCCC(N)=O)CC3)cnc2cc1NC(=O)c1ccc(-c2ccc(F)cc2)cc1 [Example 264, N-(3-{[4-(4-amino-4-oxobutyl)-1-piperidinyl]methyl}-6-methyl-7-quinolinyl)-4′-fluoro[1,1′-biphenyl]-4-carboxamide] |
| 216 °C | Cc1cc2cc(CN3CCC(CC(=O)N4CCCCC4)CC3)cnc2cc1NC(=O)c1ccc(-c2ccc(F)cc2)cc1 [Example 265, 4′-fluoro-N-[6-methyl-3-({4-[2-oxo-2-(1-piperidinyl)ethyl]-1-piperidinyl}methyl)-7-quinolinyl][1,1′-biphenyl]-4-carboxamide] |
| 197 °C | CCN(CC)C(=O)CC1CCN(Cc2cnc3cc(NC(=O)c4ccc(-c5ccc(F)cc5)cc4)c(C)cc3c2)CC1 [Example 266, N-[3-({4-[2-(diethylamino)-2-oxoethyl]-1-piperidinyl}methyl)-6-methyl-7-quinolinyl]-4′-fluoro[1,1′-biphenyl]-4-carboxamide] |
| 251 °C | CCNC(=O)CC1CCN(Cc2cnc3cc(NC(=O)c4ccc(-c5ccc(F)cc5)cc4)c(C)cc3c2)CC1 [Example 267, N-[3-({4-[2-(ethylamino)-2-oxoethyl]-1-piperidinyl}methyl)-6-methyl-7-quinolinyl]-4′-fluoro[1,1′-biphenyl]-4-carboxamide] |
| 219 °C | Cc1cc2cc(CN3CCC(CC(=O)N(C)C)CC3)cnc2cc1NC(=O)c1ccc(-c2ccc(F)cc2)cc1 [Example 268, N-[3-({4-[2-(dimethylamino)-2-oxoethyl]-1-piperidinyl}methyl)-6-methyl-7-quinolinyl]-4′-fluoro[1,1′-biphenyl]-4-carboxamide] |
| 243 °C | CNC(=O)CC1CCN(Cc2cnc3cc(NC(=O)c4ccc(-c5ccc(F)cc5)cc4)c(C)cc3c2)CC1 [Example 269, 4′-fluoro-N-[6-methyl-3-({4-[2-(methylamino)-2-oxoethyl]-1-piperidinyl}methyl)-7-quinolinyl][1,1′-biphenyl]-4-carboxamide] |
| 249 °C | Cc1cc2cc(CN3CCC(CC(N)=O)CC3)cnc2cc1NC(=O)c1ccc(-c2ccc(F)cc2)cc1 [Example 270, N-(3-{[4-(2-amino-2-oxoethyl)-1-piperidinyl]methyl}-6-methyl-7-quinolinyl)-4′-fluoro[1,1′-biphenyl]-4-carboxamide] |
| 250 °C | Cc1cc2cc(CN3CCC(C(=O)N4CCCCC4)CC3)cnc2cc1NC(=O)c1ccc(-c2ccc(F)cc2)cc1 [Example 271, 4′-fluoro-N-(6-methyl-3-{[4-(1-piperidinylcarbonyl)-1-piperidinyl]methyl}-7-quinolinyl)[1,1′-biphenyl]-4-carboxamide] |
